Laboratory results: US20030050248A1 (priority 2000, published 2003)
Converted amounts (≈) assume the structure as drawn. Like-named read-outs stand apart in the source and are kept apart here.

Tests used:
S. aureus [1] = test system: S. aureus
S. aureus [2] = assay: microbe, parasite or virus in culture; conditions: Staphylococcus aureus, Erythrocyte, in Oryctolagus cuniculus
RNAIII = assay type: cell-based, S. aureus
S. aureus [3] = assay: Mouse model, Staph mixed with drug prior to IP injection; assay type: in vivo, mice; conditions: mixed with Staph prior to IP injection
Method: (§1) The assay was carried out by injecting a fixed amount of a S. aureus culture, typically containing from about 5×10^9 cells from an early exponential growth stage culture, by intraperitoneal (IP) injection into mice, based on the method described by Thakker et al., 1998.
In one study, the S. aureus was mixed with VIF-1 or FTB, prior to IP injection.

S. aureus [4] = assay: Mouse model, Staph injected IP 20 min prior to drug injection (IP); assay type: in vivo, mice; conditions: 20 min after Staph
Method: as §1
In another approach, S. aureus was injected IP 20 minutes prior to IP injection of VIF-1 or FTB.
The commonly used anti-Staphylococcal antibiotics, methicillin and vancomycin, were tested in this model.

[5] = read-out: IC50 (relative activity), text b100/b101, assay not named, values match the α-hemolysin column of Table 4
[6] = read-out: Inhibition of α-Hemolysin production, Table 4, (n) in cell = number of determinations

SMILES	IC50 (relative activity) (S. aureus [1]) [µg]	Inhibition of α-Hemolysin production (S. aureus [1])	other results
O=C(O)CC(NC(=O)OCC1c2ccccc2-c2ccccc21)c1ccc(Br)cc1 (racemic) [(R,S)-Fmoc-3-amino-3-(4-bromophenyl)-propionic acid]	1.0	–	–
O=C(O)[C@H]1[C@H](c2ccccc2)CN1C(=O)OCC1c2ccccc2-c2ccccc21 (racemic) [Reference #104, Racemic Fmoc-trans-3-phenyl-azetidine-2-carboxylic acid]	3.9	–	–
O=C(O)CC(NC(=O)OCC1c2ccccc2-c2ccccc21)c1ccc(Br)cc1 (racemic) [Reference #127, (R,S)-Fmoc-3-amino-3-(4-bromophenyl)-propionic acid]	–	1.4 (3) μg/ml	–
O=C(O)[C@@H]1CC[C@H](c2ccccc2)N1C(=O)OCC1c2ccccc2-c2ccccc21 [(2S,5R)-Fmoc-5-phenyl-pyrrolidine-2-carboxylic acid]	1.0	–	–
O=C(O)CC[C@H](Cc1ccccc1)NC(=O)OCC1c2ccccc2-c2ccccc21 [(R)-Fmoc-4-amino-5-phenyl-pentanoic acid]	1.7	–	–
O=C(NC1(C(=O)O)CCCCC1)OCC1c2ccccc2-c2ccccc21 [Fmoc-1-amino-1-cyclohexane carboxylic acid]	0.9	–	–
O=C(N[C@@H](Cc1ccc2ccccc2c1)C(=O)O)OCC1c2ccccc2-c2ccccc21 [Fmoc-3-(2-naphthyl)alanine]	–	–	IC50 (S. aureus [2]; [5]): 4.2 mg/L (≈ 9.6 µM)
CC(C)(C)OC(=O)n1cc(C[C@@H](NC(=O)OCC2c3ccccc3-c3ccccc32)C(=O)O)c2ccccc21 [Fmoc-D-Trp(Boc)-OH]	1.0	–	–
O=C(N[C@@H](C(=O)O)c1ccccc1)OCC1c2ccccc2-c2ccccc21 [Fmoc-D-phenylglycine]	–	–	IC50 (S. aureus [2]; [5]): 5.5 mg/L (≈ 14.7 µM)
C[C@H](NC(=O)OCC1c2ccccc2-c2ccccc21)C(=O)O [Fmoc-L-Ala-OH]	6.5	–	–
O=C(N[C@@H](Cc1ccccc1)C(=O)O)OCC1c2ccccc2-c2ccccc21 [Fmoc-L-Phe-OH]	1.3	–	–
CC(C)(C)OC(=O)n1cc(C[C@H](NC(=O)OCC2c3ccccc3-c3ccccc32)C(=O)O)c2ccccc21 [Fmoc-L-Trp(Boc)-OH]	1.2	–	–
O=C(N[C@@H](Cc1c[nH]c2ccccc12)C(=O)O)OCC1c2ccccc2-c2ccccc21 [Fmoc-L-Trp-OH]	9	–	–
CC(C)[C@H](NC(=O)OCC1c2ccccc2-c2ccccc21)C(=O)O [Fmoc-L-Val-OH]	4.2	–	–
O=C(O)[C@@H]1CCN1C(=O)OCC1c2ccccc2-c2ccccc21 [Fmoc-L-azetidine-2-carboxylic acid]	12	–	–
O=C(N[C@H](C(=O)O)c1ccccc1)OCC1c2ccccc2-c2ccccc21 [Fmoc-L-phenylglycine]	–	–	IC50 (S. aureus [2]; [5]): 5 mg/L (≈ 13.4 µM)
O=C(N[C@@H](CC1CCCCC1)C(=O)O)OCC1c2ccccc2-c2ccccc21 [Fmoc-beta-cyclohexyl-L-alanine]	–	–	IC50 (S. aureus [2]; [5]): 4 mg/L (≈ 10.2 µM)
O=C(O)[C@H]1Cc2c([nH]c3ccccc23)CN1C(=O)OCC1c2ccccc2-c2ccccc21 [Reference #18, Fmoc-D-1,2,3,4-tetrahydronorharman-3-carboxylic acid]	–	2.0 (5) μg/ml	–
O=C(N[C@@H](Cc1ccccc1)C(=O)O)OCC1c2ccccc2-c2ccccc21 [Reference #32, Fmoc-L-Phe-OH]	–	1.3 µg/mL	Inhibition of RNA III activation (RNAIII): >2.5 µg/mL

SMILES	IC50 (relative activity) (S. aureus [1]) [µg]	Inhibition of α-Hemolysin production (S. aureus [1])	other results
O=C(N[C@@H](Cc1c[nH]c2ccccc12)C(=O)O)OCC1c2ccccc2-c2ccccc21 [Reference #34, Fmoc-L-Trp-OH]	–	9.0 µg/mL	Inhibition of RNA III activation (RNAIII): >2.5 µg/mL
CC(C)[C@H](NC(=O)OCC1c2ccccc2-c2ccccc21)C(=O)O [Reference #38, Fmoc-L-Val-OH]	–	1.5 µg/mL	Inhibition of RNA III activation (RNAIII): >2.5 µg/mL
O=C(N[C@@H](Cc1cnc[nH]1)C(=O)O)OCC1c2ccccc2-c2ccccc21 [Reference #42, Fmoc-L-His]	–	47 µg/mL	–
CC(C)(C)OC(=O)n1cnc(C[C@H](NC(=O)OCC2c3ccccc3-c3ccccc32)C(=O)O)c1 [Reference #43, Fmoc-L-His(Boc)-OH]	–	>50 µg/mL	–
CC(C)(C)OC(=O)n1cc(C[C@H](N)C(=O)O)c2ccccc21 [Reference #45, H-L-Trp(Boc)-OH]	–	>50 µg/mL	Inhibition of RNA III activation (RNAIII): >10.0 µg/mL
C[C@H](NC(=O)OCC1c2ccccc2-c2ccccc21)C(=O)O [Reference #52, Fmoc-L-Ala-OH]	–	6.5 µg/mL	–
CC(C)C[C@H](NC(=O)OCC1c2ccccc2-c2ccccc21)C(=O)O [Reference #67, Fmoc-L-Leu-OH]	–	2.1 (4) μg/ml	–
O=C(NCCCC[C@H](NC(=O)OCC1c2ccccc2-c2ccccc21)C(=O)O)OCc1ccccc1 [Reference #69, Fmoc-L-Lys(Z)-OH]	–	2.8 (4) μg/ml	Inhibition of RNA III activation (RNAIII): 4.7 (3) μg/ml
O=C(N[C@@H](Cc1ccc(Br)cc1)C(=O)O)OCC1c2ccccc2-c2ccccc21 [Reference #73, Fmoc-4-bromo-L-phenylalanine]	–	–	IC50 (S. aureus [2]; [6]): 1.7 mg/L (≈ 3.65 µM)
Cc1ccc(C[C@H](NC(=O)OCC2c3ccccc3-c3ccccc32)C(=O)O)cc1 [Reference #74, Fmoc-4-methyl-L-phenylalanine]	–	–	IC50 (S. aureus [2]; [6]): 2.3 mg/L (≈ 5.73 µM)
CC(C)(C)OC(=O)n1cc(C[C@@H](NC(=O)OCC2c3ccccc3-c3ccccc32)C(=O)O)c2ccccc21 [Reference #78, Fmoc-D-Trp(Boc)-OH]	–	1.3 (5) μg/ml	–
O=C(N[C@@H](CC1CCCCC1)C(=O)O)OCC1c2ccccc2-c2ccccc21 [Reference #82, Fmoc-beta-cyclohexyl-L-alanine]	–	–	IC50 (S. aureus [2]; [6]): 4 mg/L (≈ 10.2 µM)
O=C(N[C@@H](Cc1ccc(Cl)cc1)C(=O)O)OCC1c2ccccc2-c2ccccc21 [Reference #92, Fmoc-4-chloro-L-D-phenylalanine]	–	1.6 (5) μg/ml	–
O=C(O)[C@@H]1CCN1C(=O)OCC1c2ccccc2-c2ccccc21 [Reference #120, Fmoc-L-azetidine-2-carboxylic acid]	–	12.0 µg/mL	–
O=C(O)CC[C@H](Cc1ccccc1)NC(=O)OCC1c2ccccc2-c2ccccc21 [Reference #126, (R)-Fmoc-4-amino-5-phenyl-pentanoic acid]	–	1.7 (4) μg/ml	Inhibition of RNA III activation (RNAIII): 9.0 (2) μg/ml
N[C@@H](Cc1c[nH]c2ccccc12)C(=O)O [Trp, reference compound]	–	–	% Survival at 24 hr. (S. aureus [3]; 1 mg/kg): 0%; % Survival at 24 hr. (S. aureus [3]; 5 mg/kg): 33%
COc1cccc(OC)c1C(=O)N[C@@H]1C(=O)N2[C@@H]1SC(C)(C)[C@@H]2C(=O)O [methicillin, reference compound]	–	–	% Survival at 24 hr. (S. aureus [4]; 1 mg/kg IP): 17%; % Survival at 24 hr. (S. aureus [4]; 10 mg/kg IP): 50%; % Survival at 24 hr. (S. aureus [4]; 100 mg/kg IP): 100%
CN[C@H](CC(C)C)C(=O)N[C@H]1C(=O)N[C@@H](CC(N)=O)C(=O)N[C@H]2C(=O)N[C@H]3C(=O)N[C@H](C(=O)N[C@H](C(=O)O)c4cc(O)cc(O)c4-c4cc3ccc4O)[C@H](O)c3ccc(c(Cl)c3)Oc3cc2cc(c3O[C@@H]2O[C@H](CO)[C@@H](O)[C@H](O)[C@H]2O[C@H]2C[C@](C)(N)[C@H](O)[C@H](C)O2)Oc2ccc(cc2Cl)[C@H]1O [vancomycin, reference compound]	–	–	% Survival at 24 hr. (S. aureus [4]; 0.5 mg/kg IP): 17%; % Survival at 24 hr. (S. aureus [4]; 5 mg/kg IP): 50%; % Survival at 24 hr. (S. aureus [4]; 50 mg/kg IP): 100%
